IC50 data for 14 molecules are collected here from patent US8901118B2, “Compounds and methods for kinase modulation, and indications therefor” (Plexxikon Inc., priority 2010, dated 2014).

Molecules are shown by their SMILES.

In one test the target is T1, BCR-FMS BaF3 cells (Homo sapiens, UniProt P07333).
T1 construct: fused on or other part: P11274 (Breakpoint cluster region protein)
T1 sequence (P07333 582-910): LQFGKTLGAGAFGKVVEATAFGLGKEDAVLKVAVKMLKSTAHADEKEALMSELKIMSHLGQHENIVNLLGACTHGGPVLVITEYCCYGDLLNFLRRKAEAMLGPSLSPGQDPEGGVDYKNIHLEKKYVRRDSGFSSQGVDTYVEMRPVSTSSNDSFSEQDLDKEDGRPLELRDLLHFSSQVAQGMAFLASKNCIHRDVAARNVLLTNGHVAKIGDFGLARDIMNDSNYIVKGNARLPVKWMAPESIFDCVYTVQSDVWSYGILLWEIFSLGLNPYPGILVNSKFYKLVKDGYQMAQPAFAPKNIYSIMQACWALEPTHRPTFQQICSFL
Nature of the test: BaF3 BCR-FMS cell proliferation assay (ATPlite). Type of test: cell-based. The settings on record: read-out: Inhibition of Cell Proliferation IC50, BCR/BaF3 Fms. As to the method:
Compounds are assessed in a variety of cell based assays. For example BaF3 cells engineered with any of BCR-FMS, BCR-KIT, BCR-FLT3, BCR-NTRK1, BCR-NTRK2, and BCR-NTRK3, are used in cell proliferation assays to assess inhibitory activity of Fms, Kit, Flt-3, TrkA, TrkB, and TrkC, respectively. An MV-4-11 (leukemia) cell proliferation assay is used to assess inhibitory activity in Flt-3, and SKNSH (human neuroblastoma) cell proliferation assay is used to assess efficacy of Fms/Trk inhibitors. Additional cells may be assayed similarly to assess the efficacy of Fms/Trk inhibitors, such as MiaPaCa (human pancreatic cancer) and Capan-1 (human pancreatic carcinoma) cells. Reagent and assay conditions are as follows: • BaF3 cells: • Maintained in RPMI containing 10% FBS, 1% PenStrep, 1% NEAA, and 1% L-Glutamine, supplemented with 1 mg/mL G418 and 5% WEHI-CM (or recombinant murine IL-3). • Confluent cells are split 1:50 to 1:100 every 3-4 days. • MV-4-11 cells: • Maintained in Iscove's Modified Dulbecco's Medium containing 10% FBS. • Confluent cells are split 1:4 every 3-4 days. • SKNSH cells: RPMI containing 10% FBS. On day 1, cells are counted, then centrifuged in a conical tube for 5 minutes at 1000 rpm. The supernatant is removed and cells are re-suspended as follows: • BaF3: resuspend in growth media +1 mg/mL G418 (without WEHFIL-3) to 2×10^5 cells/mL. • MV-4-11: resuspend in growth media to 5×10^5 cells/mL. • SKNSH: resuspend in growth media to 2×10^4 cells/mL. The cells are plated (50 μL, 150 μL for SKNSH cells) in each well of a 96-well dish (Corning 3610) and incubated at 37° C. in 5% CO2 overnight, cells plated to a final concentration of cells as follows: • BaF3: 10,000 cells per well. • MV-4-11: 25,000 cells per well. • SKNSH: 3,000 cells per well. On day 2, compound at a maximum concentration of 5 mM is serially diluted 1:3 for a total of 8 point titration with DMSO as a control. A 1 μL aliquot of each dilution point is added to 249 μL growth media and 50 μL is added to a well containing cells, providing 10 μM compound for the maximum concentration point. The cells are incubated for 3 days at 37° C. in 5% CO2. For SKNSH cells, a 0.75 μL aliquot of appropriate dilution in DMSO is added to 150 μL of cells. On day 5, ATPlite 1 step Luminescence Assay System (Perkin Elmer #6016739) is brought to room temperature along with the cell cultures. ATPlite is added to each well as follows: • BaF3: 25 μL per well. • MV-4-11: 40 μL per well. • SKNSH: 20 μL per well. The cells are incubated at room temperature for 10 minutes, then luminescence is read on Safire reader. The measured luminescence correlates directly with cell number, such that the reading as a function of compound concentration is used to determine the IC50 value.
It is understood that the results of these assays may vary as assay conditions are varied. Inhibition levels determined under the conditions described herein represent a relative activity for the compounds tested under the specific conditions employed. The cell based assays are likely to show variability due to the complexity of the system and the sensitivity thereof to any changes in the assay conditions. […] Results for compounds that are tested and show substantially no inhibition below the highest tested concentration are represented as “-” in the tables below. In some instances, the compounds were not tested in all of the assays, or assay results were not valid, as indicated by NA in the tables below.
In general terms: In ATP-based viability assays light output follows the ATP content of the culture.

A further test has as its target CYP2C19 (Homo sapiens, UniProt P33261). Nature of the test: CYP2C19 inhibition (fluorescent substrate CEC). In kind it is in vitro ADME. The settings on record: read-out: Cyp IC50 2C19. The method, then:
(§1) CYP (Cytochrome P450) enzymes are the major drug metabolizing enzymes present in the liver. The inhibition of CYP enzyme activity (IC50) for each of CYP1A2, CYP2C19, CYP2C9, CYP2D6, CYP3A4(BFC) and CYP3A4(BQ) is determined for compounds, where inhibition of metabolism of a known substrate leads to a decrease in the fluorescence of the metabolized product. The fluorescence of the product is monitored as a function of compound concentration. Compounds are dissolved in DMSO to a concentration of 100 mM. These are diluted 1 μL into 82 μL of acetonitrile. An 11 μL aliquot of this solution is then added to 204 μL of cofactor mix (1.3% NADPH Regeneration system Solution A, 1.04% NADPH Regeneration system Solution B from BD Biosciences, 5% acetonitrile and 0.05% DMSO). These are then serially diluted 1:1 (160 μL to 160 μL co-factor mix) for a total of 10 points. A 10 μL aliquot of this final mixture is dispensed into 384 well assay plates and incubated for 10 minutes at 37° C. […] Assay plates are incubated at 37° C. (CYP1A2-15 min; CYP2C9-45 min; CYP2C19, 2D6 and 3A4-30 min) and read in a Tecan Safire 2 plate reader (CYP1A2, 2C19 and 3A4 409 ex/460 em; CYP2C9 and 2D6 409 ex/530 em). The signal versus compound concentration is used to determine the IC50. The enzymes and substrates for this assay are obtained from BD Biosciences.

For another test, the target named is CYP2C9 (Homo sapiens, UniProt P11712). Nature of the test: CYP2C9 inhibition (fluorescent substrate MFC). In kind it is in vitro ADME. Particulars: read-out: Cyp IC50 2C9. The method, then: as §1
Chain of CYP2C9 (P11712 whole entry): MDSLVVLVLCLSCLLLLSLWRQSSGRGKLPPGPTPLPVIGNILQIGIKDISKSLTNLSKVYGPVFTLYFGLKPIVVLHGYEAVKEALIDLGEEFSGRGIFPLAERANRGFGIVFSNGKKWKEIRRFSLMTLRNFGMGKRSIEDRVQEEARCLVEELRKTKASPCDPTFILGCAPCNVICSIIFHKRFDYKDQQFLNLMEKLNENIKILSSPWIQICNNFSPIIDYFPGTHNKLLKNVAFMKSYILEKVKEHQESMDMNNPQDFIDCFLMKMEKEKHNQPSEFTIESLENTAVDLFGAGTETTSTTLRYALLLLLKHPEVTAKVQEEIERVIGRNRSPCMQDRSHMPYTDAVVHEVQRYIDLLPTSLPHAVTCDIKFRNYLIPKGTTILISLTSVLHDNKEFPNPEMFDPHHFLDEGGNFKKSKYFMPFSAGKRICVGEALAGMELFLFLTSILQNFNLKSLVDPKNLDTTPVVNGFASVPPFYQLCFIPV

Chain of CYP2C19 (P33261 whole entry): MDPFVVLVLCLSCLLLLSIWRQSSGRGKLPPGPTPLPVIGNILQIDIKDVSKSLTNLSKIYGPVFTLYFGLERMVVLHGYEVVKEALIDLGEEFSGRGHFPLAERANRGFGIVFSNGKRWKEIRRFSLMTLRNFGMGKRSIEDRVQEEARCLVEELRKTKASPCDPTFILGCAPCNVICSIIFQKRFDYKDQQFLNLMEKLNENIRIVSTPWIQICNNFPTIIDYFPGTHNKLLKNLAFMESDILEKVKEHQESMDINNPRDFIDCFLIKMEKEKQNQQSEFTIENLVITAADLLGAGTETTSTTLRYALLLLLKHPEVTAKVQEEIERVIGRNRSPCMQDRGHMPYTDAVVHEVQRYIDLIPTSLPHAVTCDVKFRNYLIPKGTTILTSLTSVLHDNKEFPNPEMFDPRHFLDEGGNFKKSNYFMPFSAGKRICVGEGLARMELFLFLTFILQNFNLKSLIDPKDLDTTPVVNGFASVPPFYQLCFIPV

Consider `CCC(CC)Nc1ncnc2[nH]cc(C(=O)c3ccc(Nc4ccc(OC)nc4)nc3F)c12` [Compound P-4077, [4-(1-ethylpropylamino)-7H-pyrrolo[2,3-d]pyrimidin-5-yl]-[2-fluoro-6-[(6-methoxy-3-pyridyl)amino]-3-pyridyl]methanone], for which the IC50 on BCR-FMS BaF3 cells is < 0.01 µM; on CYP2C19 it was 5 to 10 µM; on CYP2C9, > 10 µM.

As to `CCC(C)Nc1ncnc2[nH]cc(C(=O)c3ccc(Nc4ccc(OC)nc4)nc3F)c12` (stereo not drawn) [Compound P-4078, [2-fluoro-6-[(6-methoxy-3-pyridyl)amino]-3-pyridyl]-[4-(sec-butylamino)-7H-pyrrolo[2,3-d]pyrimidin-5-yl]methanone], the IC50 is < 0.01 µM at BCR-FMS BaF3 cells, > 10 µM at CYP2C19 and > 10 µM at CYP2C9.

On to `COCCCNc1ncnc2[nH]cc(C(=O)c3ccc(Nc4ccc(OC)nc4)nc3F)c12` [Compound P-4079, [2-fluoro-6-[(6-methoxy-3-pyridyl)amino]-3-pyridyl]-[4-(3-methoxypropylamino)-7H-pyrrolo[2,3-d]pyrimidin-5-yl]methanone], for which the IC50 on BCR-FMS BaF3 cells is < 0.1 µM; on CYP2C19, 5 to 10 µM; on CYP2C9, > 10 µM.

On to `CCCCNc1ncnc2[nH]cc(C(=O)c3ccc(Nc4ccc(OC)nc4)nc3F)c12` [Compound P-4080, [4-(butylamino)-7H-pyrrolo[2,3-d]pyrimidin-5-yl]-[2-fluoro-6-[(6-methoxy-3-pyridyl)amino]-3-pyridyl]methanone], for which the figures for the IC50 at BCR-FMS BaF3 cells, on CYP2C19 and at CYP2C9 were < 0.1 µM, > 10 µM and > 10 µM, respectively.

Turning to `CCNc1ncnc2[nH]cc(C(=O)c3ccc(Nc4ccc(OC)nc4)nc3F)c12` [Compound P-4081, [4-(ethylamino)-7H-pyrrolo[2,3-d]pyrimidin-5-yl]-[2-fluoro-6-[(6-methoxy-3-pyridyl)amino]-3-pyridyl]methanone], the IC50 was < 0.01 µM at BCR-FMS BaF3 cells, > 10 µM on CYP2C19 and > 10 µM on CYP2C9.

Consider `COc1ccc(Nc2ccc(C(=O)c3c[nH]c4ncnc(NC5CCCCC5)c34)c(F)n2)cn1` [Compound P-4082, [4-(cyclohexylamino)-7H-pyrrolo[2,3-d]pyrimidin-5-yl]-[2-fluoro-6-[(6-methoxy-3-pyridyl)amino]-3-pyridyl]methanone], for which the IC50 was < 0.01 µM on BCR-FMS BaF3 cells, > 10 µM at CYP2C19 and > 10 µM on CYP2C9.

As to `CNc1ncnc2[nH]cc(C(=O)c3ccc(Nc4ccc(OC)nc4)nc3F)c12` [Compound P-4083, [2-fluoro-6-[(6-methoxy-3-pyridyl)amino]-3-pyridyl]-[4-(methylamino)-7H-pyrrolo[2,3-d]pyrimidin-5-yl]methanone], the IC50 at BCR-FMS BaF3 cells is < 0.1 µM; at CYP2C19 it was > 10 µM; on CYP2C9 it was > 10 µM.

With `COc1ccc(Nc2ccc(C(=O)c3c[nH]c4ncnc(NCC(F)(F)F)c34)c(F)n2)cn1` [Compound P-4084, [2-fluoro-6-[(6-methoxy-3-pyridyl)amino]-3-pyridyl]-[4-(2,2,2-trifluoroethylamino)-7H-pyrrolo[2,3-d]pyrimidin-5-yl]methanone], the results for the IC50 on BCR-FMS BaF3 cells, on CYP2C19 and on CYP2C9 were < 0.01 µM, 5 to 10 µM and > 10 µM, respectively.

Regarding `O=C(c1ccc(NC2CCC(F)(F)CC2)nc1)c1c[nH]c2ncnc(NCC(F)(F)F)c12` [Compound P-4087, [6-[(4,4-difluorocyclohexyl)amino]-3-pyridyl]-[4-(2,2,2-trifluoroethylamino)-7H-pyrrolo[2,3-d]pyrimidin-5-yl]methanone], the IC50 on BCR-FMS BaF3 cells was < 1 µM; on CYP2C19 it was > 10 µM; on CYP2C9 it was > 10 µM.

Turning to `O=C(c1ccc(NC2CCC(F)(F)CC2)nc1)c1c[nH]c2ncnc(NC3CC3)c12` [Compound P-4088, [4-(cyclopropylamino)-7H-pyrrolo[2,3-d]pyrimidin-5-yl]-[6-[(4,4-difluorocyclohexyl)amino]-3-pyridyl]methanone], the IC50 on BCR-FMS BaF3 cells was < 0.1 µM; on CYP2C19, > 10 µM; at CYP2C9, > 10 µM.

Consider `CNc1ncnc2[nH]cc(C(=O)c3ccc(NC4CCC(F)(F)CC4)nc3)c12` [Compound P-4089, [6-[(4,4-difluorocyclohexyl)amino]-3-pyridyl]-[4-(methylamino)-7H-pyrrolo[2,3-d]pyrimidin-5-yl]methanone], for which the IC50 was < 0.1 µM at BCR-FMS BaF3 cells, > 10 µM at CYP2C19 and > 10 µM at CYP2C9.

For `O=C(c1ccc(Nc2ccc(C3CC3)nc2)nc1F)c1c[nH]c2ncnc(NCC(F)(F)F)c12` [Compound P-4090, [6-[(6-cyclopropyl-3-pyridyl)amino]-2-fluoro-3-pyridyl]-[4-(2,2,2-trifluoroethylamino)-7H-pyrrolo[2,3-d]pyrimidin-5-yl]methanone], the figures for the IC50 at BCR-FMS BaF3 cells, on CYP2C19 and at CYP2C9 were < 0.1 µM, > 10 µM and > 10 µM, respectively.

`O=C(c1ccc(Nc2ccc(C(F)(F)F)nc2)nc1F)c1c[nH]c2ncnc(NC3CC3)c12` [Compound P-4091, [4-(cyclopropylamino)-7H-pyrrolo[2,3-d]pyrimidin-5-yl]-[2-fluoro-6-[[6-(trifluoromethyl)-3-pyridyl]amino]-3-pyridyl]methanone]: the values for the IC50 at BCR-FMS BaF3 cells, on CYP2C19 and at CYP2C9 were < 0.01 µM, > 10 µM and > 10 µM, respectively.

For the molecule `CNc1ncnc2[nH]cc(C(=O)c3ccc(Nc4ccc(C(F)(F)F)nc4)nc3F)c12` [Compound P-4092, [2-fluoro-6-[[6-(trifluoromethyl)-3-pyridyl]amino]-3-pyridyl]-[4-(methylamino)-7H-pyrrolo[2,3-d]pyrimidin-5-yl]methanone], the IC50 on BCR-FMS BaF3 cells is < 0.01 µM; at CYP2C19, < 5 µM; at CYP2C9, < 5 µM.
